Source: US8252832B2, “Kinesin inhibitors as cancer therapeutics” (Novartis AG, priority 2007, dated 2012)

Columns and labels:
Type in all cases: cell-based
tumor cell lines = assay: Inhibition of cellular proliferation, CellTiter-Glo, 72 hours, all cell lines tested; settings: 72 hours of continuous compound exposure
Source text: Cell lines used were as follows: HCT-116 (National Cancer Institute's DCTF Tumor Repository, catalog #NCI-502568, Rockville, Md.), HCT-15 (National Cancer Institute's DCTF Tumor Repository, catalog#NCI-502711, Rockville, Md. available from American Type Tissue Collection, catalog #CLL-225), KB-3-1 (available from DSMZ, Deutsche Sammlung von Mikroorganismen und Zellkulturen GmbH (German Collection of Microorganisms and Cell Cultures—catalog number ACC 158), KB-V1 (available from DSMZ—catalog number ACC 149), AGS (available from American Type Culture Collection, Manassas Va., catalog number CRL-1739™), N87 (available from American Type Culture Collection, Manassas Va., catalog number CRL-5822), Hel92.1.7 (available from American Type Culture Collection, Manassas Va., catalog number TIB 180), K562 (available from American Type Culture Collection, Manassas Va., catalog number CRL-243™), MV4; 11 (American Tissue Culture Collection, Manassas Va., catalog number CRL-9591) and U937 (available from American Type Culture Collection, Manassas Va., catalog number CRL-1593.2).
Cells were plated in 96-well plates at densities of about 500 cells per well of a 96-well plate and allowed to grow for 24 hours. […] The amount of luminescence was determined for each well using a Wallac Trilux plate reader, which correlates with the number of cells per well. […]

HCT-116 = assay: LDH release assay; settings: Homo sapiens
Source text: (§1) Identification of tumor types that are the most sensitive to the KSP inhibitors of the present invention can be accomplished using an unbiased approach that uses several cell-based assays. The assays chosen were as follows: • CellTiter-Glo®. This is an assay designed to measure ATP concentration in a cell culture, and can be correlated to cell number. Briefly CellTiter-Glo® (Promega Corporation) is a homogeneous method using the single CellTiter-Glo® reagent to detect ATP wherein ATP in the assay drives the activity of a thermostable luciferase to create a luminescent signal which can then be measured and correlated with the number of viable cells. Briefly, for adherent cells, 1,000 to 5,000 cells/well were plated in 96-well plates (100 μl/well) and let to adhere for 24 hours before being treated with drug. For non-adherent cells, 1,000 to 10,000 cells/well were plated in 96-well plates (100 μl/well) and immediately treated with drug. Drug dilutions were prepared in DMSO at 1000 times the final concentration. These dilutions were then diluted 1/100 in growth media before being added to the cells (11 μl/well) to achieve the desired final concentration. After 48 h in a 37° C. tissue culture incubator, the plates were processed for the CellTiter-Glo®assay according to the manufacturer's instructions. Protocol for a 72 hour cell proliferation assay: The 72 hour assay was performed the same way as the 48 hour assay except for the following modifications: For adherent cells, 500 to 5,000 cells/well were plated in 96-well plates (90 μl/well cell growth media) and left to adhere for 24 hours before being treated with drug. For non-adherent cells, 1,000 to 10,000 cells/well were plated in 96-well plates (90 μl/well cell growth media) and immediately treated with drug. Data values presented represent the concentration of test compound required for a 50% reduction in growth. • LDH release. The Cytotoxicity Detection KitPLUS (LDH) assay (Roche Diagnostics, Manheim, Germany) measures the amount of LDH released in the media by dying cells; LDH catalyzes the conversion of lactate into pyruvate. The enzymatic reaction is coupled to a chemical reaction that uses a tetrazolium salt to form a formazan that is red and can be detected by its absorbance at 490 nm. This assay measures the amount of cell death after drug treatment. Cells were plated at 10,000 cells/well in 96-well plates (100 μl/well). Adherent cells were let to adhere for 24 hours before being treated with drug, whereas non-adherent cells were immediately treated with drug. Drug dilutions were prepared in DMSO at 1000 times the final concentration. These dilutions were then diluted 1/100 in growth media before being added to the cells (11 μl/well) to achieve the desired final concentration. […] The media only values were subtracted from all the data points before analysis. Data values presented correspond to the compound concentration wherein LDH output is at half maximal level. • Caspase-Glo® 3/7. The Caspase-Glo® 3/7 Assay (Promega Corporation) is a homogeneous luminescent assay that measures caspase-3/7 activities. The assay provides a proluminescent caspase-3/7 DEVD-aminoluciferin substrate and a thermostable luciferase in a reagent optimized for caspase-3/7 activity, luciferase activity and cell lysis. Adding the single Caspase-Glo® 3/7 Reagent results in cell lysis, followed by caspase cleavage of the substrate. This liberates free aminoluciferin, which is consumed by the luciferase, generating a luminescent signal. The signal is proportional to caspase-3/7 activity. Data values presented correspond to the compound concentration wherein caspase 3/7 activity is at half maximal level.

HT29 = assay: LDH release assay; settings: Homo sapiens, HT-29
Source text: as §1

T47-D = assay: LDH release assay; settings: Homo sapiens, T47D
Source text: as §1

CC(C)(C)[C@H](c1nc(-c2cc(F)ccc2F)cn1Cc1ccccc1)N(CC[C@H](N)CF)C(=O)CO [Compound IIa]
GI50 (tumor cell lines): 0.1 to 6.5 nM | EC50 (HCT-116; HCT-116, 24 h): 0.06 nM | EC50 (HCT-116; HCT-116, 48 h): 0.1 nM | EC50 (HCT-116; HCT-116, 72 h): 0.1 nM | EC50 (HT29; HT29, 48 h): 0.35 nM | EC50 (HT29; HT29, 72 h): 0.27 nM | EC50 (T47-D; 48 h): 0.32 nM | EC50 (T47-D; 72 h): 0.33 nM
